Where two headings read alike, the source gives them in different places.

Data set [1] has as its target heteromeric rod CNG channels consisting of CNGA1 and CNGB1 subunits (Bos taurus, UniProt Q00194+Q28181). Kind of data set: biochemical. The format is cell-based. Conditions: for Kd: 2 mM cGMP. The method, then: Currents were elicited by a voltage step protocol from 0 to −50 to +50 mV (See FIG. 1) in the presence of 2 mM cGMP or 2 mM cGMP and compound (5 μM). Time scale is shown in the lower left-hand corner of the panel and FIG. 1, and the zero current level is indicated by the dotted line.
The solid line indicates the fit of the equation for block at a single binding site.
Time scale is shown in the lower left-hand corner of the panel and FIG. 1, and the zero current level is indicated by the dotted line. […] Solid line indicates the fit of the equation for block at a single binding site.
The effectiveness of retinal rod CNG channel current block by the disclosed compounds was tested in Xenopus oocyte preparations. Excised, inside-out patches pulled from oocytes expressed heteromeric rod CNG channels consisting of CNGA1 and CNGB1 subunits. […] CNG channel currents were elicited by a voltage step protocol to −50 and +50 mV (FIG. 1). The apparent KD value at each membrane potential was estimated first by determining I+B and I−B at steady state, where I+B is the current in the presence of blocker and I−B is current in the absence of blocker, for different blocker concentrations ([B]).
Ovaries were surgically removed from adult Xenopus laevis females (Xenopus Express; Brooksville, Fla.) anesthetized with ice-cold 0.1% tricaine and 0.1% NaHCO3 solution. Oocytes were chemically released from ovarian follicles in Ca^2+-free Barth's solution (88 mM NaCl, 1 mM KCl, 2.4 mM NaHCO3, 0.82 mM MgSO4, 7.5 mM Tris, 2.5 mM sodium pyruvate, 100 U/mL penicillin, and 100 μg/mL streptomycin, pH 7.4) containing 0.1 U/mL Liberase Blendzymes (Roche, Indianapolis, Ind.). Stages IV and V oocytes were visually sorted and stored in ND-96 (96 mM NaCl, 2 mM KCl, 1.8 mM CaCl2, 1 mM MgCl2, 5 mM HEPES, 2.5 mM sodium pyruvate, 100 U/mL penicillin, and 100 μg/mL streptomycin, pH 7.4) at 16° C. Oocytes were co-injected the following day with 33 ng of CNGA1 and 67 ng of CNGB1 cRNA […] synthesized from linearized pGEM-HE expression vectors containing the channel subunit cDNA sequence (Strassmaier T & Karpen J, J Med Chem 50, 4186-4194, (2007), incorporated by reference herein) using T7 mMESSAGE mMACHINE® (Ambion, Austin, Tex.). Injected oocytes were incubated at 18° C. the first day and 16° C. for the remaining days.
(§1) Recordings from inside-out excised patches were made 3-7 days after oocyte injection on an Axopatch 1D® amplifier (Axon Instruments, Foster City, Calif.). Briefly, oocyte vitelline membranes were removed in solution containing 200 mM K aspartate, 20 mM KCl, 1 mM MgCl2, 10 mM EGTA, 10 mM HEPES, pH 7.4. Oocytes were placed in a recording chamber in a solution containing 130 mM NaCl, 2 mM HEPES, 0.02 mM EDTA, 1 mM EGTA, pH 7.6, and borosilicate glass electrodes (1-3 MΩ) were filled with identical solution. Macroscopic currents were filtered at 1 kHz and sampled at 2 kHz using pCLAMP 8.0® software (Axon Instruments). Channels were either fully activated with 2 mM or partially activated with 50 and 100 μM cGMP. […] Glass syringes and Teflon tubing were used to minimize the binding of compounds to surfaces; concentrations passing through the perfusion system were verified by absorbance.

The next data set concerns the target T1, chymotrypsin (Bos taurus, UniProt P00766).
T1 construct: purchased Worthington Biochemical Co
Kind of data set: In vitro hydrolysis by chymotrypsin. The format is in vitro ADME. The procedure:
All enzymatic assays were performed with 50 μM compound in 0.1M phosphate buffer, pH 7.4, at 37° C. with stirring, unless otherwise noted. Butyrylcholinesterase stock solutions from human serum (Sigma, St. Louis, Mo.) were prepared at 100 U/mL in 0.1 M phosphate buffer, pH 7.4, and stored at −20° C. until use. Hydrolysis was monitored on an 8452A diode array spectrophotometer (Hewlett-Packard). Product peak wavelength absorption was immediately monitored upon addition of compound. Absorbances for complete hydrolysis were determined when there were no further detectable changes. […] All hydrolysis assays were performed in triplicate, and final rate constants are expressed as the mean±SD of the three individually determined rate constants. […] Activity of chymotrypsin (bovine, Worthington Biochemical Co., 190 μg/mL) was verified with 90 μM 4-nitrophenyl acetate in 0.1 M HEPES solution, pH 6.5, at 37° C. with stirring. Hydrolysis product was monitored at 404 nm for 10 min. Activity of proteinase K (from Engyodontium album, Sigma, 165 μg/mL) was verified with 16.5 mg/mL bovine serum albumin in 0.1 M phosphate buffer, pH 7.4, at 37° C. Samples were taken at time point increments up to 2 hours when the reaction reached completion. Samples were analyzed with 12% SDS-PAGE, stained with 0.1% Coomassie Blue.

In data set [2] the test system is heteromeric rod CNG channels consisting of CNGA1 and CNGB1 subunits. Put plainly: CNG channel block at subsaturating cGMP (state dependence of block). The format is cell-based. The note with it: subsaturating cGMP (50 or 100 μM), +50 mV, normalized to KD at 2 mM cGMP.
From the text: KD values at saturating cGMP were corrected for ion accumulation. Solid lines indicate simulations for exclusive closed channel blockers, using KD/KDsat=(1−Fsat)/(1−FsatI/Imax), where Fsat is the estimated fraction of open heteromeric rod channels in saturating cGMP assuming Fsat=0.3 (a), 0.56 (b), or 0.78 (c). The dotted line is a simulation for a blocker with no preference for state, or KD/KDsat=1. The dashed line is a simulation for an exclusive open channel blocker, using KD/KDsat=(I/Imax)^−1.
The solid lines in FIG. 4 marked a, b, and c represent the expected relationship between KD and the fraction of closed channels for an exclusive closed channel blocker. Each of a, b, and c uses one estimate for the probability of closed heteromeric retinal rod channels at saturating cGMP. The simulations are described in the following references: Matthews G et al, J Physiol 403, 389-405 (1988); Taylor W R & Baylor D A, J Physiol 483 567-582 (1995); and Bucossi G et al, Biophys J 72, 1165-1181 (1997), all of which are incorporated by reference herein. The dotted line represents a simulation of a blocker with no preference as to conformational of the channel. The dashed line represents a simulation for an exclusive open channel blocker.
as §1, with “absorbance. Current traces were digitally filtered at 300 Hz (Gaussian) and averaged using Clampfit 8.2® software. Currents in the absence of cGMP were subtracted from all currents analyzed. KD values were determined and expressed as the mean±SD.” for “absorbance.”

The target of data set [3] is T2, Butyrylcholinesterase purified from human blood serum (Homo sapiens, UniProt P06276).
T2 construct: Butyrylcholinesterase purified from human blood serum; purchased Sigma; host or cells: purified from human blood serum
T2 sequence (P06276 29-602): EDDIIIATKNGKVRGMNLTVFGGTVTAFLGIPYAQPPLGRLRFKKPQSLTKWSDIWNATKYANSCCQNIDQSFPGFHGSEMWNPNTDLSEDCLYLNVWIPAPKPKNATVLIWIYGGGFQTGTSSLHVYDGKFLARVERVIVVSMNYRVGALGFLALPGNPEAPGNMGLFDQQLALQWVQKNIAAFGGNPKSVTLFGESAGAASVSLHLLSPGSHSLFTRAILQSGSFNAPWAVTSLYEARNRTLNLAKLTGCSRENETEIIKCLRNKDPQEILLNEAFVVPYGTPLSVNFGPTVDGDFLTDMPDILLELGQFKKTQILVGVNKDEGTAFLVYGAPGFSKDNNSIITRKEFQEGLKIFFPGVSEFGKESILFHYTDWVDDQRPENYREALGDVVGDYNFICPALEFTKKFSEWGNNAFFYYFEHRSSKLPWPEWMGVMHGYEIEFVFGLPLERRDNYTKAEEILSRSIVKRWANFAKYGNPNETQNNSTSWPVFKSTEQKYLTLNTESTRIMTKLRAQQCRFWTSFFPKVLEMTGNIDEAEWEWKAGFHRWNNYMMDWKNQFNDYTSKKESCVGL
Put plainly: In vitro hydrolysis by serum cholinesterase (butyrylcholinesterase). The format is in vitro ADME. The note with it: 50 μM compound, 0.1M phosphate buffer pH 7.4, 37° C.; mean±SD of triplicate. The procedure:
Compound 1 is rapidly hydrolyzed by butyrylcholinesterase in the bloodstream. Butyrylcholinesterase purified from human blood serum was used to test the resistance of the disclosed compounds to hydrolysis.
All enzymatic assays were performed with 50 μM compound in 0.1M phosphate buffer, pH 7.4, at 37° C. with stirring, unless otherwise noted. Butyrylcholinesterase stock solutions from human serum (Sigma, St. Louis, Mo.) were prepared at 100 U/mL in 0.1 M phosphate buffer, pH 7.4, and stored at −20° C. until use. Hydrolysis was monitored on an 8452A diode array spectrophotometer (Hewlett-Packard). Product peak wavelength absorption was immediately monitored upon addition of compound. Absorbances for complete hydrolysis were determined when there were no further detectable changes. […] All hydrolysis assays were performed in triplicate, and final rate constants are expressed as the mean±SD of the three individually determined rate constants. In some experiments with compound 1, samples were taken at the beginning and end of the assay to verify the hydrolysis product and the completion of the reaction by HPLC. These samples were compared to compounds 1 and 3 on a C18 column eluted with 0.1% TFA in water/acetonitrile. Activity of chymotrypsin (bovine, Worthington Biochemical Co., 190 μg/mL) was verified with 90 μM 4-nitrophenyl acetate in 0.1 M HEPES solution, pH 6.5, at 37° C. with stirring. Hydrolysis product was monitored at 404 nm for 10 min. Activity of proteinase K (from Engyodontium album, Sigma, 165 μg/mL) was verified with 16.5 mg/mL bovine serum albumin in 0.1 M phosphate buffer, pH 7.4, at 37° C. Samples were taken at time point increments up to 2 hours when the reaction reached completion. Samples were analyzed with 12% SDS-PAGE, stained with 0.1% Coomassie Blue.

Where [4] appears, read: Table 2 (butyl series), +50 mV, read-out: KD(+50).
Setting [5] is: Table 2 (butyl series), −50 mV, read-out: KD(−50).
Setting [6] is: octyl series table, +50 mV, read-out: KD(+50).
[7] abbreviates: octyl series table, −50 mV, read-out: KD(−50).

Chain of heteromeric rod CNG channels consisting of CNGA1 and CNGB1 subunits (Bos taurus, UniProt Q00194+Q28181) (Q00194 whole entry): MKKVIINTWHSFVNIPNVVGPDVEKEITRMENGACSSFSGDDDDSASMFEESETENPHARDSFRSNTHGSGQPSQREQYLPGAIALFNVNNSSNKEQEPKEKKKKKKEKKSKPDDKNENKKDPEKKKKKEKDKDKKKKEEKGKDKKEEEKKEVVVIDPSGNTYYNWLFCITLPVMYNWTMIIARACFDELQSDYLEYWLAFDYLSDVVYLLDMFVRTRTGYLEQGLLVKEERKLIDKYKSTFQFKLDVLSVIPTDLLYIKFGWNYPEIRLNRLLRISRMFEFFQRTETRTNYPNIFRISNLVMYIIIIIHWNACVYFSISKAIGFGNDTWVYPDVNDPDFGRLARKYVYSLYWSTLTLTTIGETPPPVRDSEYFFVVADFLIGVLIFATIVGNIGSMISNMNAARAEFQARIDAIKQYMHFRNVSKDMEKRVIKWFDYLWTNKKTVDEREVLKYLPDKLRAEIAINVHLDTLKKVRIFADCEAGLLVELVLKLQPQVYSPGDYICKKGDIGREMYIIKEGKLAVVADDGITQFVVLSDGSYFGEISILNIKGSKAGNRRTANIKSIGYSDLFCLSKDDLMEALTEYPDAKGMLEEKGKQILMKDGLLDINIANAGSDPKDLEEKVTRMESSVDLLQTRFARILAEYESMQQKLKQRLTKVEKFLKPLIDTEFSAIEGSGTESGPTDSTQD
Chain of heteromeric rod CNG channels consisting of CNGA1 and CNGB1 subunits (Bos taurus, UniProt Q00194+Q28181) (Q28181 whole entry): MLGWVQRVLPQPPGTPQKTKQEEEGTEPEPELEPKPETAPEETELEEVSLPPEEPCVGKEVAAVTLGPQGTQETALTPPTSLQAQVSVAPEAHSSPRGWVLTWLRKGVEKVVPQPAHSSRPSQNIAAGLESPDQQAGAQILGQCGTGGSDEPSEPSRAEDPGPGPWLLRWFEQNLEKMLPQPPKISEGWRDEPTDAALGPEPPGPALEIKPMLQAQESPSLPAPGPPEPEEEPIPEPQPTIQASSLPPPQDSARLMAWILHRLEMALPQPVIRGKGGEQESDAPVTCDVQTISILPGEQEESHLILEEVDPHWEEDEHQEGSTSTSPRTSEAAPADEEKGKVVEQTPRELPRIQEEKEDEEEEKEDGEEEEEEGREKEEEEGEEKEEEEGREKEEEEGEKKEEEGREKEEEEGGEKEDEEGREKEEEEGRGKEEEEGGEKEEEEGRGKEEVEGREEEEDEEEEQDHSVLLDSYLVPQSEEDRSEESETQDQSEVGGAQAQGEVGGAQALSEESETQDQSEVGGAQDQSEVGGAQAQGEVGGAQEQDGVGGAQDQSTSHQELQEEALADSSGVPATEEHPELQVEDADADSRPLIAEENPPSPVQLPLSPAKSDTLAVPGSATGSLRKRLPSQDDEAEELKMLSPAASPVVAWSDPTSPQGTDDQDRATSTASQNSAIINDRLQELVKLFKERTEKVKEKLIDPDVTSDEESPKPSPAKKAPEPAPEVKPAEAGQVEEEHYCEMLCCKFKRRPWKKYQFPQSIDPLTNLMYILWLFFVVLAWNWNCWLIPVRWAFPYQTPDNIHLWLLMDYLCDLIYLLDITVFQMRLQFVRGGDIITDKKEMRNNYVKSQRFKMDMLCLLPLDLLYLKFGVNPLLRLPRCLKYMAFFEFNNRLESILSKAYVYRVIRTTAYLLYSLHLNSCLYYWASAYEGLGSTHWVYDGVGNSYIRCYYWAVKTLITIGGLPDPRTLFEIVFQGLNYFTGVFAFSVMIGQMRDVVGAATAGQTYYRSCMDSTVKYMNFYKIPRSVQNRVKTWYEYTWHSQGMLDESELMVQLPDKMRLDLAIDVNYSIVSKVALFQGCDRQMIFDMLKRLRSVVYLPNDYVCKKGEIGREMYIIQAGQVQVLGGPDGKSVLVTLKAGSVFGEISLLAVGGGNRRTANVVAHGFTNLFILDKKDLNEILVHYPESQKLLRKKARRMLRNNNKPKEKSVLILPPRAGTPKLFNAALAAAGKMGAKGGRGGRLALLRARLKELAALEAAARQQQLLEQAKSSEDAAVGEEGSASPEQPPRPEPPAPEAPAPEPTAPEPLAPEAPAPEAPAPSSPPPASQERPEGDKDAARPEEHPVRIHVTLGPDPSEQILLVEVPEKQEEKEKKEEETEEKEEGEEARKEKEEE

For `COc1ccc([C@H]2Sc3ccccc3N(CCN(C)C)C(=O)[C@H]2OC(C)=O)cc1` (relative stereo) [l-cis-diltiazem, reference compound], the “block of 2 mM cGMP-induced currents” value in data set [1] was 74.2±5.8%.

As for `CC(=O)Oc1ccc([N+](=O)[O-])cc1` [4-nitrophenyl acetate, reference compound], at chymotrypsin, the “hydrolysis products with chymotrypsin” value is “detected”.

In the case of `CCCCNc1ccc(C(=O)OCCN(C)C)cc1` [Compound 1, 2-(dimethylamino)ethyl 4-(butylamino)benzoate, reference compound], the “state dependence of block (KD vs fraction of closed channels)” value in data set [2] is reported as “better fit the results expected of a closed channel blocker”. The Hydrolysis rate in data set [3] was 132 ± 10 nmol/min/mg.

Take `CCCCNc1ccc(C(=O)OCCN(C)C)cc1[N+](=O)[O-]` [Compound 12a, 2-(dimethylamino)ethyl 4-(butylamino)-3-nitrobenzoate]: the dissociation constant Kd in data set [1] (setting [4]) was found to be 5500 ± 3200 nM; in data set [1] (setting [5]) it was 19600 ± 14400 nM.

As for `CCCCNc1ccc(C(=O)OCCN(C)C)cc1OC` [Compound 12b, 2-(dimethylamino)ethyl 4-(butylamino)-3-methoxybenzoate], the equilibrium dissociation constant (Kd) was 4300 ± 800 nM in data set [1] (setting [4]) and 18300 ± 4400 nM in data set [1] (setting [5]).

As for `CCCCNc1ccc(C(=O)OCCN(C)C)cc1C` [Compound 12c, 2-(dimethylamino)ethyl 4-(butylamino)-3-methylbenzoate], the figures for the Kd in data set [1] (setting [4]) and in data set [1] (setting [5]) were 7800 ± 3100 nM and 28100 ± 13400 nM, respectively.

In the case of `CCCCNc1ccc(C(=O)OCCN(C)C)cc1Cl` [Compound 12d, 2-(dimethylamino)ethyl 4-(butylamino)-3-chlorobenzoate], the “improvement of affinity / blocking potency compared to compound 1 (tetracaine)” value in data set [1] came out at 1.6 fold. Moreover, the Kd in data set [1] (setting [4]) turned out to be 3000 ± 1000 nM; in data set [1] (setting [5]) it was 12800 ± 4100 nM.

Turning to `CCCCCCCCNc1ccc(C(=O)OCCN(C)C)cc1[N+](=O)[O-]` [Compound 14a, 2-(dimethylamino)ethyl 4-(octylamino)-3-nitrobenzoate], the equilibrium dissociation constant (Kd) in data set [1] (setting [6]) was 8000 ± 5800 nM; in data set [1] (setting [7]), 12600 ± 7300 nM.

As to `CCCCCCCCNc1ccc(C(=O)OCCN(C)C)cc1OC` [Compound 14b, 2-(dimethylamino)ethyl 4-(octylamino)-3-methoxybenzoate], the figures for the Kd in data set [1] (setting [6]) and in data set [1] (setting [7]) were 1250 ± 1230 nM and 3000 ± 3400 nM, respectively.

Turning to `CCCCCCCCNc1ccc(C(=O)OCCN(C)C)cc1C` [Compound 14c, 2-(dimethylamino)ethyl 4-(octylamino)-3-methylbenzoate], the dissociation constant (Kd) is 500 ± 420 nM in data set [1] (setting [6]) and 1410 ± 840 nM in data set [1] (setting [7]).

With `CCCCCCCCNc1ccc(C(=O)OCCN(C)C)cc1Cl` [Compound 14d, 2-(dimethylamino)ethyl 4-(octylamino)-3-chlorobenzoate], in data set [1], the “improvement of affinity / blocking potency compared to compound 5” value was “approximately six-fold improvement”. The equilibrium dissociation constant (Kd) worked out at 140 ± 40 nM in data set [1] (setting [6]) and 380 ± 160 nM in data set [1] (setting [7]).

Turning to `CCCCCCCCNc1ccc(C(=O)OCCN(C)C)cc1F` [Compound 14e, 2-(dimethylamino)ethyl 4-(octylamino)-3-fluorobenzoate], the results for the Kd in data set [1] (setting [6]) and in data set [1] (setting [7]) were 200 ± 100 nM and 750 ± 860 nM, respectively.

For `CCCCCCCCNc1ccc(C(=O)OCCN(C)C)cc1Br` [Compound 14f, 2-(dimethylamino)ethyl 4-(octylamino)-3-bromobenzoate], the Kd came out at 140 ± 30 nM in data set [1] (setting [6]) and 240 ± 100 nM in data set [1] (setting [7]).

On to `CCCCCCCCNc1ccc(C(=O)OCCN(C)C)c(Cl)c1` [Compound 14g, 2-(dimethylamino)ethyl 4-(octylamino)-2-chlorobenzoate], for which the Kd turned out to be 100 ± 90 nM in data set [1] (setting [6]) and 220 ± 130 nM in data set [1] (setting [7]).

One may read the Kd as the concentration at which binding is half-saturated.
